Reference: patent publication US20210353595A1, “USE OF MELATONIN IN PREPARATION OF MEDICAMENT FOR INHIBITING AND/OR KILLING BACTERIUM” (priority 2020, published 2021)

How the values were obtained:
Pasteurella multocida [1] = assay: Prevention of Pasteurella multocida infection by melatonin in mice; assay type: in vivo, C57BL/6 mice
Description: (§1) C57 mice purchased from the Third Military Medical University were randomly divided into four groups (10 mice in each group): a group of Pasteurella multocida+solvent control, a group of Pasteurella multocida+MT (30 mg/kg), a group of Pasteurella multocida+MT (60 mg/kg), and a group of Pasteurella multocida+MT (120 mg/kg). Before Pasteurella multocida infection, MT was injected intraperitoneally to the experimental group (injection once in the morning) for consecutive 7 days (P) or 6 days (P-1), while the control mice received the equal amount of DMSO. Thereafter, mice were infected by intraperitoneal injection of suspension of Pasteurella multocida ([…]). The survival rate of mice within 7 days was monitored and recorded. Blood samples were collected from mice, and the serum was stored at −20° C. for later ELISA test. Lung samples were collected and homogenized aseptically, and then the bacterial load was quantified by serial dilution, plate inoculation and CFU counting.
In order to measure the colonization of mouse lung bacteria before and after melatonin treatment, the lung tissues of mice were collected 24 hours and 32 hours after infection. The tissues were homogenized under aseptic conditions, and the bacterial content was determined by continuous dilution of 10 times in saline. These different dilutions were coated on the Martin broth agar in triplicate and incubated in a constant-temperature incubator at 37° C. for 24 hours to count the bacterial CFU.

[2] = system: citrate synthase in Pneumococcus; assay: Citrate synthase activity of bacteria after treatment; assay type: cell-based, Diplococcus pneumoniae; details: MT 1-3 mg/mL, 12 h, also with exogenous citric acid, FIG. 28
Description: (§2) Further, 1 mL of Klebsiella pneumoniae, Pseudomonas aeruginosa, Diplococcus pneumoniae and Streptococcus pneumoniae at the logarithmic growth stage was added into 100 mL of fresh and sterile Martin broth liquid medium containing different concentrations of melatonin and citric acid (MT-1 mg/mL, MT-2 mg/mL, MT-3 mg/mL, CA-1 mg/mL, CA-2 mg/mL, CA-3 mg/mL, MT-1 mg/mL-CA-1 mg/mL, MT-2 mg/mL-CA-2 mg/mL, MT-3 mg/mL-CA-3 mg/mL) added was. Melatonin-free DMSO was used as the solvent control group, and the bacterial cells were cultured in a constant-temperature shaker at 37° C. and 220 rpm for 12 h. Thereafter, 1 mL of the bacterial solution was pipetted and centrifuged at 3000 r/min for 10 minutes. The bacterial cells were then collected and determined for citrate synthase activity according to the protocol of the instructions for the kit. Each experiment was repeated three times, and each group was set in triplicate.

[3] = system: citrate synthase in Streptococcus; assay: as above; assay type: cell-based, Streptococcus pneumoniae; details: MT 1-3 mg/mL, 12 h, also with exogenous citric acid, FIG. 28
Description: as §2

Pasteurella multocida [4] = assay: Leakage of bacterial cell contents; assay type: cell-based; details: MT 1-10 mg/mL, 12 h
Description: 1 mL of Pasteurella multocida (1×10^9 CFU) at the logarithmic growth stage was added into 100 mL of fresh and sterile Martin broth medium containing different concentrations (1 mg/mL, 2 mg/mL, 3 mg/mL, 4 mg/mL, 6 mg/mL, 8 mg/mL and 10 mg/mL) of MT. Melatonin-free DMSO was used as a solvent control group, ampicillin (100 μg/mL) was used as a positive control group, and bacterial cells were cultured in a shaker at 37° C. and 220 rpm for 12 h. Thereafter, 1 mL of the bacterial solution was taken and centrifuged at 3000 r/min for 10 minutes, and the supernatant and precipitated cells were collected, respectively. At the same time, 2.5 mmol/mL of o-nitrophenyl-β-D-galactopyranoside (ONPG) and Pasteurella multocida were added to detect β-galactosidase. The concentrations of protein, alkaline phosphatase (AKP) and reducing sugar in the supernatant were determined sequentially using respective determination kits. The β-galactosidase in the supernatant was determined by measuring the optical density at 420 nm (OD420). Each experiment was carried out for three times, and each group was set in triplicate.

Pasteurella multocida [5] = assay: Prevention and treatment of Pasteurella multocida infection in mice; assay type: in vivo, C57BL/6 mice
Description: as §1
Mice were randomly divided into four groups (10 mice in each group) as described in #1, described above. In the experimental group, after infection with 2.2×10^5 CFU of Pasteurella multocida through intraperitoneal injection, MT was injected intraperitoneally for four times, with the first injection 30 minutes after Pasteurella multocida infection, then the injection was performed once every 6 hours, for three times in total. Control mice were given an equal amount of DMSO at the same four time points. Subsequently, the survival rate of mice within 7 days was recorded. At the same time, mice were euthanized at 12 h, 16 h, 24 h and 32 h after infection to collect tissue and serum samples for later ELISA and bacterial count analysis.
In order to measure the colonization of mouse lung bacteria before and after melatonin treatment, the lung tissues of mice were collected 24 hours and 32 hours after infection. The tissues were homogenized under aseptic conditions, and the bacterial content was determined by continuous dilution of 10 times in saline. […]

Pasteurella multocida [6] = assay: Non-targeted metabonomic analysis; assay type: cell-based; details: 1 mg/mL of MT, 12 hours
Description: 1 mL of fresh Pasteurella multocida (P. multocida) at the logarithmic growth stage was added into 100 mL of fresh Martin liquid medium containing 1 mg/mL of MT, and MT-free DMSO was used as a solvent control group. All cultures were incubated with shaking at 37° C. and 220 rpm for 12 hours. The bacterial samples were centrifuged at a speed of 3000 rpm/min at 4° C. for 10 minutes, the supernatant was removed, and the bacterial cells were collected and washed with PBS for 3 times. The bacterial cells were rapidly frozen in liquid nitrogen, transferred to dry ice, and sent to Shanghai Baiqu Biomedical Technology Co., Ltd. for metabolomic analysis (Q Exactive Orbitrap, Thermo Fisher Scientific, USA). Through the non-targeted metabonomic study of Pasteurella multocida cells before and after melatonin treatment, it was clarified which metabolic pathway of the bacteria is affected by melatonin in exerting the antibacterial activity of melatonin.

[7] = preventive dose 60 mg/kg or above, intraperitoneal, consecutive 7 days before infection

Compound: COc1ccc2[nH]cc(CCNC(C)=O)c2c1 [melatonin, N-acetyl-5-methoxytryptamine]
- preventive effect on the bacterial infection (Pasteurella multocida [1]; melatonin removed 24 hours before infection (P-1, 6 days), FIGS. 33 and 34): significant preventive effect
- bacterial count in the lung (Pasteurella multocida [1]; [7]): significantly reduced
- survival rate of mice (Pasteurella multocida [1]; [7]): significantly improved
- enzyme activity of citrate synthase [2]: not influenced
- enzyme activity of citrate synthase [3]: not influenced
- activity of extracellular β-galactosidase (Pasteurella multocida [4]; OD420, FIG. 7): increase
- content of extracellular proteins (Pasteurella multocida [4]; supernatant, FIG. 4): increase
- content of extracellular alkaline phosphatase (Pasteurella multocida [4]; supernatant, FIG. 6): increase
- content of extracellular reducing sugar (Pasteurella multocida [4]; supernatant, FIG. 8): increase
- activity of extracellular ATPase (Pasteurella multocida [4]; FIG. 5): increase
- bacterial colonization in the lung tissues of mice (Pasteurella multocida [5]; 24 hours and 32 hours after infection, prevention and treatment groups vs DMSO group): significantly reduced
- decrease of bacterial colonization amount (CFU/g) (Pasteurella multocida [5]; dose of 120 mg/kg, lung tissues): about 2 log 10
- survival rates of mice (Pasteurella multocida [5]; prevention and treatment groups vs DMSO group, intraperitoneal, FIGS. 29-34): significantly improved
- acetyl coenzyme A level in bacterial cells (Pasteurella multocida [6]): significantly up-regulated
- citric acid level in bacterial cells (Pasteurella multocida [6]): significantly down-regulated
- pyruvic acid level in bacterial cells (Pasteurella multocida [6]): significantly up-regulated
